Converted amounts (≈) assume the structure as drawn. Read-outs that look alike come from different tables or passages of the source.
Key:
[1] = test system: human allogenic MLR (peripheral blood lymphocytes); test: human allogenic MLR-suppressive activity; type: cell-based
Method: The human allogenic MLR-suppressive activity was assayed as follows:
Human peripheral blood lymphocytes obtained by Ficoll-Paque density gradient centrifugation of normal human peripheral blood were suspended in the RPMI1640 medium supplemented with 10% FCS, placed in plastic dishes, and incubated at 37° C. in an atmosphere of 5% carbon dioxide for 2 hours. After termination of incubation, the supernatant after gentle pipetting was harvested and centrifuged (1000 rpm, for 5 minutes) to obtain plastic-nonadherent cells. The plastic-nonadherent cells were allowed to pass through a nylon-wool column to give nylon-nonadherent cells, and the concentration of the cell suspension was adjusted to 4×10^6 cells/ml by using the RPMI1640 culture medium supplemented with 10% FCS, and used as the responder cell suspension.
The plastic-adherent cells were removed from the plastic dish by vigorous pipetting after addition of phosphate buffered saline supplemented with 5% FCS and 0.02% disodium ethylenediamine-tetraacetic acid (EDTA). The plastic-adherent cells were treated with 40 μg/ml of mitomycin C at 37° C. for 60 minutes, washed three times, and suspended to the concentration of 4×10^6 cells/ml in the RPMI1640 culture medium supplemented with 10% FCS. The resultant suspension was used as the stimulator cell suspension. Fifty μl of the responder cell suspension from the donor A or C was mixed with 50 μl of the stimulator cell suspension from the donor B or D, to which 100 μl of the test substance was added, and cultured at 37° C. in the an atmosphere 5% carbon dioxide for 5 days.
After termination of the culture, 1.0 μCi/well of ^3 H-thymidine was added, and after 18 hours of culture, the cells were harvested by a cell-harvester. The radioactivity incorporated into the cells was measured by a liquid scintillation counter as the index of blastogenic response of lymphocytes in human allogenic MLR. The suppression of human allogenic MLR was evaluated by calculating the percent suppression by the following formula. [formula]

[2] = test system: IL2-dependent mouse cell line CTLL-2; test: suppression of IL-2 induced 3H-thymidine incorporation of CTLL-2; type: cell-based; details: 72 hrs, second run (control 30168 cpm)
Method: IL2-dependent mouse cell line CTLL-2 cells were suspended in the RPMI1640 culture medium supplemented with 30% FCS to a concentration of 2×10^5 cells/ml. The suspension (50 μl) and 50 μl of concanavalin A-stimulated rat spleen cell culture supernatants containing IL2 were added to each well of 96-well microculture plates in which 100 μl of the test substance had been placed. After culturing at 37° C. in an atmosphere of 5% carbon dioxide for 20, 44, or 68 hours, 0.5 μCi/well of ^3 H-thymidine was added, and cultured for 4 hours under the same conditions. After termination of the culture, the cells were harvested by a cell harvester, and the radioactivity incorporated into the cells was measured by a liquid scintillation counter.

Compound: CCCCCCC(O)CCCCCC/C=C/CC(O)C(O)C(N)(CO)C(=O)O (centres unmarked) [Example 6]
- inhibition at 0.0001 µg/mL ([1]; Homo sapiens, Lymphocyte, donor A/donor B, 0.0001 μg/ml, read-out: Suppression): 45.2%
- inhibition at 0.001 µg/mL ([1]; Homo sapiens, Lymphocyte, donor A/donor B, 0.001 μg/ml, read-out: Suppression): 56.2%
- inhibition at 0.01 µg/mL ([1]; Homo sapiens, Lymphocyte, donor A/donor B, 0.01 μg/ml, read-out: Suppression): 81.7%
- inhibition at 0.1 µg/mL ([1]; Homo sapiens, Lymphocyte, donor A/donor B, 0.1 μg/ml, read-out: Suppression): 81.3%
- inhibition at 1 µg/mL ([1]; Homo sapiens, Lymphocyte, donor A/donor B, 1 μg/ml, read-out: Suppression): 83.9%
- inhibition at 10 µg/mL ([1]; Homo sapiens, Lymphocyte, donor A/donor B, 10 μg/ml, read-out: Suppression): 90%
- inhibition at 0.0001 µg/mL ([1]; Homo sapiens, Lymphocyte, donor C/donor D, 0.0001 μg/ml, read-out: Suppression): 14%
- inhibition at 0.001 µg/mL ([1]; Homo sapiens, Lymphocyte, donor C/donor D, 0.001 μg/ml, read-out: Suppression): 51.7%
- inhibition at 0.01 µg/mL ([1]; Homo sapiens, Lymphocyte, donor C/donor D, 0.01 μg/ml, read-out: Suppression): 77%
- inhibition at 0.1 µg/mL ([1]; Homo sapiens, Lymphocyte, donor C/donor D, 0.1 μg/ml, read-out: Suppression): 80.3%
- inhibition at 1 µg/mL ([1]; Homo sapiens, Lymphocyte, donor C/donor D, 1 μg/ml, read-out: Suppression): 86.4%
- inhibition at 10 pg/mL ([1]; Homo sapiens, Lymphocyte, read-out: Suppression): 6.8%
- IC50 ([1]; Lymphocyte, human allogenic MLR, read-out: 50%-inhibition concentration (IC50)): 0.22 ng/mL (≈ 0.545 nM)
- 3H-thymidine uptake ([1]; donor A/donor B, 0.0001 μg/ml): 14191 cpm
- 3H-thymidine uptake ([1]; donor A/donor B, 0.001 μg/ml): 11753 cpm
- 3H-thymidine uptake ([1]; donor A/donor B, 0.01 μg/ml): 6335 cpm
- 3H-thymidine uptake ([1]; donor A/donor B, 0.1 μg/ml): 6418 cpm
- 3H-thymidine uptake ([1]; donor A/donor B, 1 μg/ml): 5877 cpm
- 3H-thymidine uptake ([1]; donor A/donor B, 10 μg/ml): 4564 cpm
- 3H-thymidine uptake ([1]; donor C/donor D, 0.00001 μg/ml): 16241 cpm
- 3H-thymidine uptake ([1]; donor C/donor D, 0.0001 μg/ml): 14996 cpm
- 3H-thymidine uptake ([1]; donor C/donor D, 0.001 μg/ml): 8468 cpm
- 3H-thymidine uptake ([1]; donor C/donor D, 0.01 μg/ml): 4082 cpm
- 3H-thymidine uptake ([1]; donor C/donor D, 0.1 μg/ml): 3501 cpm
- 3H-thymidine uptake ([1]; donor C/donor D, 1 μg/ml): 2448 cpm
- 3H-thymidine uptake ([2]; 0.1 μg/ml): 7237 cpm
- 3H-thymidine uptake ([2]; 1 μg/ml): 1346 cpm
- inhibition at 0.1 µg/mL ([2]; Mus musculus, CTLL-2, 0.1 μg/ml, read-out: Suppression): 76.2%
- inhibition at 1 µg/mL ([2]; Mus musculus, CTLL-2, 1 μg/ml): 95.7%

— US5219884A, “Immunosuppressant” (Taito Co., Ltd., priority 1990, dated 1993)
